Reference: ChEMBL document CHEMBL1152559, “Antioxidant activity of 5,10-dihydroindeno[1,2-b]indoles containing substituents on dihydroindeno part” (Bioorg Med Chem, 2009)
Values after ≈ are worked out from the molar mass of the structure shown.

Columns and labels:
Assay type in all cases: functional
[1] = system: Radical scavenging activity; experiment: Antioxidant activity assessed as DPPH radical scavenging activity
[2] = Antioxidant activity assessed as ABTS radical scavenging activity
[3] = Antioxidant activity assessed as DMPD radical scavenging activity
[4] = Antioxidant activity assessed as superoxide anion scavenging activity by NBT reduction assay
[5] = Antioxidant activity assessed as hydrogen peroxide radical scavenging activity

Compound: COc1cc2c(c(OC)c1)-c1[nH]c3ccccc3c1C2
- IC50 [1]: 33.31 µg/mL (≈ 126 µM)
- IC50 [2]: 23.04 µg/mL (≈ 86.8 µM)
- IC50 [3]: 60.46 µg/mL (≈ 228 µM)
- IC50 [4]: 20.43 µg/mL (≈ 77 µM)
- IC50 [5]: 3.35 µg/mL (≈ 12.6 µM)

Compound: COc1ccc2c(c1)-c1[nH]c3ccccc3c1C2
- IC50 [1]: 48.57 µg/mL (≈ 206 µM)
- IC50 [2]: 54.15 µg/mL (≈ 230 µM)
- IC50 [3]: 15.01 µg/mL (≈ 63.8 µM)
- IC50 [4]: 19.86 µg/mL (≈ 84.4 µM)
- IC50 [5]: 7.02 µg/mL (≈ 29.8 µM)

Compound: Oc1ccc(O)c2c1Cc1c-2[nH]c2ccccc12
- IC50 [1]: 11.92 µg/mL (≈ 50.2 µM)
- IC50 [2]: 21.56 µg/mL (≈ 90.9 µM)
- IC50 [3]: 22.2 µg/mL (≈ 93.6 µM)
- IC50 [4]: 15.49 µg/mL (≈ 65.3 µM)
- IC50 [5]: 3.28 µg/mL (≈ 13.8 µM)

Compound: Brc1ccc2c(c1)Cc1c-2[nH]c2ccccc12
- IC50 [1]: 64.12 µg/mL (≈ 226 µM)
- IC50 [2]: 63.63 µg/mL (≈ 224 µM)
- IC50 [3]: 15.34 µg/mL (≈ 54 µM)
- IC50 [4]: 14.39 µg/mL (≈ 50.6 µM)
- IC50 [5]: 8.47 µg/mL (≈ 29.8 µM)

Compound: Fc1ccc2c(c1)Cc1c-2[nH]c2ccccc12
- IC50 [1]: 49.73 µg/mL (≈ 223 µM)
- IC50 [2]: 39.1 µg/mL (≈ 175 µM)
- IC50 [3]: 31.47 µg/mL (≈ 141 µM)
- IC50 [4]: 16.49 µg/mL (≈ 73.9 µM)
- IC50 [5]: 4.41 µg/mL (≈ 19.8 µM)

Compound: Oc1ccc2c(c1)Cc1c-2[nH]c2ccccc12
- IC50 [1]: 11.67 µg/mL (≈ 52.7 µM)
- IC50 [2]: 39.85 µg/mL (≈ 180 µM)
- IC50 [3]: 130.07 µg/mL (≈ 588 µM)
- IC50 [4]: 26.61 µg/mL (≈ 120 µM)
- IC50 [5]: 4.47 µg/mL (≈ 20.2 µM)

Compound: COc1ccc(OC)c2c1Cc1c-2[nH]c2ccccc12
- IC50 [1]: 51.67 µg/mL (≈ 195 µM)
- IC50 [2]: 32.76 µg/mL (≈ 123 µM)
- IC50 [3]: 24.87 µg/mL (≈ 93.7 µM)
- IC50 [4]: 15.75 µg/mL (≈ 59.4 µM)
- IC50 [5]: 3.92 µg/mL (≈ 14.8 µM)

Compound: Oc1cc2c(cc1O)-c1[nH]c3ccccc3c1C2
- IC50 [1]: 29.44 µg/mL (≈ 124 µM)
- IC50 [2]: 45.98 µg/mL (≈ 194 µM)
- IC50 [3]: 76.58 µg/mL (≈ 323 µM)
- IC50 [4]: 14.1 µg/mL (≈ 59.4 µM)
- IC50 [5]: 5.09 µg/mL (≈ 21.5 µM)

Compound: Clc1ccc2c(c1)Cc1c-2[nH]c2ccccc12
- IC50 [1]: 44.18 µg/mL (≈ 184 µM)
- IC50 [2]: 82.87 µg/mL (≈ 346 µM)
- IC50 [3]: 57.89 µg/mL (≈ 242 µM)
- IC50 [4]: 16.2 µg/mL (≈ 67.6 µM)
- IC50 [5]: 30.52 µg/mL (≈ 127 µM)

Compound: c1ccc2c(c1)Cc1c-2[nH]c2ccccc12
- IC50 [1]: 65.91 µg/mL (≈ 321 µM)
- IC50 [2]: 58.66 µg/mL (≈ 286 µM)
- IC50 [3]: 32.92 µg/mL (≈ 160 µM)
- IC50 [4]: 12.64 µg/mL (≈ 61.6 µM)
- IC50 [5]: 7.14 µg/mL (≈ 34.8 µM)

Compound: Oc1cccc2c1-c1[nH]c3ccccc3c1C2
- IC50 [1]: 10.12 µg/mL (≈ 45.7 µM)
- IC50 [2]: 9.72 µg/mL (≈ 43.9 µM)
- IC50 [3]: 127.21 µg/mL (≈ 575 µM)
- IC50 [4]: 21.69 µg/mL (≈ 98 µM)
- IC50 [5]: 2.8 µg/mL (≈ 12.7 µM)

Compound: Oc1ccc2c(c1O)Cc1c-2[nH]c2ccccc12
- IC50 [1]: 9.47 µg/mL (≈ 39.9 µM)
- IC50 [2]: 79.02 µg/mL (≈ 333 µM)
- IC50 [3]: 34.79 µg/mL (≈ 147 µM)
- IC50 [4]: 31.14 µg/mL (≈ 131 µM)
- IC50 [5]: 3.16 µg/mL (≈ 13.3 µM)

Compound: COc1cccc2c1Cc1c-2[nH]c2ccccc12
- IC50 [1]: 38.16 µg/mL (≈ 162 µM)
- IC50 [2]: 29.91 µg/mL (≈ 127 µM)
- IC50 [3]: 28.5 µg/mL (≈ 121 µM)
- IC50 [4]: 21.99 µg/mL (≈ 93.5 µM)
- IC50 [5]: 3.74 µg/mL (≈ 15.9 µM)

Compound: Oc1cc(O)c2c(c1)Cc1c-2[nH]c2ccccc12
- IC50 [1]: 72.89 µg/mL (≈ 307 µM)
- IC50 [2]: 49.04 µg/mL (≈ 207 µM)
- IC50 [3]: 39.38 µg/mL (≈ 166 µM)
- IC50 [4]: 11.46 µg/mL (≈ 48.3 µM)
- IC50 [5]: 5.47 µg/mL (≈ 23.1 µM)

Compound: COc1ccc2c(c1OC)Cc1c-2[nH]c2ccccc12
- IC50 [1]: 33.16 µg/mL (≈ 125 µM)
- IC50 [2]: 81.39 µg/mL (≈ 307 µM)
- IC50 [3]: 46.44 µg/mL (≈ 175 µM)
- IC50 [4]: 12.42 µg/mL (≈ 46.8 µM)
- IC50 [5]: 25.43 µg/mL (≈ 95.8 µM)

Compound: c1ccc2c3c([nH]c2c1)-c1cc2c(cc1C3)OCO2
- IC50 [1]: 13.07 µg/mL (≈ 52.4 µM)
- IC50 [2]: 23.67 µg/mL (≈ 95 µM)
- IC50 [3]: 18.62 µg/mL (≈ 74.7 µM)
- IC50 [4]: 16.11 µg/mL (≈ 64.6 µM)
- IC50 [5]: 3.39 µg/mL (≈ 13.6 µM)

Compound: Oc1cccc2c1Cc1c-2[nH]c2ccccc12
- IC50 [1]: 36.27 µg/mL (≈ 164 µM)
- IC50 [2]: 64.69 µg/mL (≈ 292 µM)
- IC50 [3]: 26.75 µg/mL (≈ 121 µM)
- IC50 [4]: 18.67 µg/mL (≈ 84.4 µM)
- IC50 [5]: 8.82 µg/mL (≈ 39.9 µM)

Compound: COc1ccc2c(c1)Cc1c-2[nH]c2ccccc12
- IC50 [1]: 37.79 µg/mL (≈ 161 µM)
- IC50 [2]: 68.03 µg/mL (≈ 289 µM)
- IC50 [3]: 17.45 µg/mL (≈ 74.2 µM)
- IC50 [4]: 24.37 µg/mL (≈ 104 µM)
- IC50 [5]: 9.08 µg/mL (≈ 38.6 µM)

Compound: COc1cc2c(cc1OC)-c1[nH]c3ccccc3c1C2
- IC50 [1]: 25.76 µg/mL (≈ 97.1 µM)
- IC50 [2]: 73.99 µg/mL (≈ 279 µM)
- IC50 [3]: 52.83 µg/mL (≈ 199 µM)
- IC50 [4]: 17.09 µg/mL (≈ 64.4 µM)
- IC50 [5]: 13.86 µg/mL (≈ 52.2 µM)

Compound: Oc1ccc2c(c1)-c1[nH]c3ccccc3c1C2
- IC50 [1]: 27.4 µg/mL (≈ 124 µM)
- IC50 [2]: 20.71 µg/mL (≈ 93.6 µM)
- IC50 [3]: 14.76 µg/mL (≈ 66.7 µM)
- IC50 [4]: 18.55 µg/mL (≈ 83.8 µM)
- IC50 [5]: 3.25 µg/mL (≈ 14.7 µM)

Compound: Cc1c(C)c2c(c(C)c1O)CC[C@@](C)(CCC[C@H](C)CCC[C@H](C)CCCC(C)C)O2 [ALPHA-TOCOPHEROL]
- IC50 [1]: 13.41 µg/mL (≈ 31.1 µM)
- IC50 [2]: 73.15 µg/mL (≈ 170 µM)
- IC50 [4]: 33.17 µg/mL (≈ 77 µM)
- IC50 [5]: 11.82 µg/mL (≈ 27.4 µM)

Compound: COc1ccc(O)c(C(C)(C)C)c1.COc1ccc(O)cc1C(C)(C)C [BUTYLATED HYDROXYANISOLE]
- IC50 [1]: 16.67 µg/mL
- IC50 [2]: 4.65 µg/mL
- IC50 [3]: 32.92 µg/mL
- IC50 [4]: 68.82 µg/mL
- IC50 [5]: 2.65 µg/mL

Compound: Cc1cc(C(C)(C)C)c(O)c(C(C)(C)C)c1 [BUTYLATED HYDROXYTOLUENE]
- IC50 [1]: 42.91 µg/mL (≈ 195 µM)
- IC50 [2]: 52.81 µg/mL (≈ 240 µM)
- IC50 [3]: 17.45 µg/mL (≈ 79.2 µM)
- IC50 [4]: 49.48 µg/mL (≈ 225 µM)
- IC50 [5]: 5.97 µg/mL (≈ 27.1 µM)

Compound: Cc1c(C)c2c(c(C)c1O)CCC(C)(C(=O)O)O2 (stereo not drawn) [TROLOX]
- IC50 [1]: 10.03 µg/mL (≈ 40.1 µM)
- IC50 [2]: 62.32 µg/mL (≈ 249 µM)
- IC50 [3]: 195.11 µg/mL (≈ 780 µM)
- IC50 [5]: 8.06 µg/mL (≈ 32.2 µM)
